Biological target: T1, SIRT1 (Homo sapiens, UniProt Q96EB6)
T1 sequence (Q96EB6 1-747): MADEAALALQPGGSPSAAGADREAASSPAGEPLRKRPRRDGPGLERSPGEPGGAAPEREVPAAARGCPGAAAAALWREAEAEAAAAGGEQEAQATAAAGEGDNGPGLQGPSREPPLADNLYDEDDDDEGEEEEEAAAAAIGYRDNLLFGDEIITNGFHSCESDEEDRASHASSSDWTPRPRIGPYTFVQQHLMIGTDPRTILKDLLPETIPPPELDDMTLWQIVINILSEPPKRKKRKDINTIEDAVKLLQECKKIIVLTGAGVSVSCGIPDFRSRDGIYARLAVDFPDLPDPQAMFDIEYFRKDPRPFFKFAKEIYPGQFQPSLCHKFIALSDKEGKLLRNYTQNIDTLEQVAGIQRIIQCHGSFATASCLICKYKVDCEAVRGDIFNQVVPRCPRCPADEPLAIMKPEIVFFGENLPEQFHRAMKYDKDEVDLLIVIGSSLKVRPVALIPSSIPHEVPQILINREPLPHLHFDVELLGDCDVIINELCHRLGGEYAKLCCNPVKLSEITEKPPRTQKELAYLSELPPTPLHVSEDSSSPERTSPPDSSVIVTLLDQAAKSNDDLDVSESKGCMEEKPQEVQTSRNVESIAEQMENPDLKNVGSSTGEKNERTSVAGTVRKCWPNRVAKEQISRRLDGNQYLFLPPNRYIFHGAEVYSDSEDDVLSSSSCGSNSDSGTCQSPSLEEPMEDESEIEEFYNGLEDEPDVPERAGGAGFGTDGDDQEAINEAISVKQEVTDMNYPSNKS
Assay: Trp mass spectrometry assay of SIRT1 activation (deacetylation of Ac-R-H-K-K(Ac)-W-NH2 peptide, OAADPR formation)
Assay type: biochemical
Conditions: Trp peptide 0.5 μM, 120 μM βNAD+, 10 nM SIRT1, 25 min, 25° C.; for Emax: 25 min, read-out: TRP MAX RESP (percent maximum fold activation relative to control = 100%)
How it was run: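 10 nM His-tagged SIRT1 (E. coli expressed) with 0.5 μM Ac-RHKK(Ac)W-NH2 and 120 μM βNAD+, 25 min at 25° C, HEPES pH 7.5, […]; formic acid stop. OAADPR or deacetylated peptide measured by mass spectrometry; EC1.5 = concentration giving 150% activity versus DMSO control; maximum activation also reported.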

Row | SMILES | Emax | TRP Activity (EC1.5, concentration of compound required to increase SIRT1 activity by 50% over control)
1 | O=C(Nc1cnc(OC[C@H](O)CO)nc1)N1c2nc(-c3cccc(C(F)(F)F)c3)c(Cl)cc2N2CCC[C@H]1C2 [Example 69, (9S)-3-chloro-N-(2-((R)-2,3-dihydroxypropoxy)pyrimidin-5-yl)-2-(3-(trifluoromethyl)phenyl)-8,9-dihydro-6H-5,9-methanopyrido[2,3-b][1,4]diazocine-10(7H)-carboxamide] | ≥ 150% | A (EC1.5<1 μM)
2 | O=C(Nc1cc(OC[C@H](O)CO)ncn1)N1c2nc(-c3cccc(C(F)(F)F)c3)c(Cl)cc2N2CCC[C@H]1C2 [Example 70, (9S)-3-chloro-N-(6-((R)-2,3-dihydroxypropoxy)pyrimidin-4-yl)-2-(3-(trifluoromethyl)phenyl)-8,9-dihydro-6H-5,9-methanopyrido[2,3-b][1,4]diazocine-10(7H)-carboxamide] | ≥ 150% | B (EC1.5 1-25 μM)
3 | O=C(NC1CC1)N1c2nc(-c3cccc(C(F)(F)F)c3)c(Cl)cc2N2CCC[C@H]1C2 [Example 71, (9S)-3-chloro-N-cyclopropyl-2-(3-(trifluoromethyl)phenyl)-8,9-dihydro-6H-5,9-methanopyrido[2,3-b][1,4]diazocine-10(7H)-carboxamide] | ≥ 150% | A (EC1.5<1 μM)
4 | O=C(Nc1cnc(OC[C@@H](O)CO)nc1)N1c2nc(-c3cccc(C(F)(F)F)c3)c(Cl)cc2N2CCC[C@H]1C2 [Example 72, (9S)-3-chloro-N-(2-((S)-2,3-dihydroxypropoxy)pyrimidin-5-yl)-2-(3-(trifluoromethyl)phenyl)-8,9-dihydro-6H-5,9-methanopyrido[2,3-b][1,4]diazocine-10(7H)-carboxamide] | ≥ 150% | A (EC1.5<1 μM)
5 | O=C(Nc1cnc(OC[C@H](O)CO)cn1)N1c2nc(-c3cccc(C(F)(F)F)c3)c(Cl)cc2N2CCC[C@H]1C2 [Example 73, (9S)-3-chloro-N-(5-((R)-2,3-dihydroxypropoxy)pyrazin-2-yl)-2-(3-(trifluoromethyl)phenyl)-8,9-dihydro-6H-5,9-methanopyrido[2,3-b][1,4]diazocine-10(7H)-carboxamide] | ≥ 150% | A (EC1.5<1 μM)
6 | O=C(Nc1ccc(OC[C@@H](O)CO)cn1)N1c2nc(-c3cccc(C(F)(F)F)c3)c(Cl)cc2N2CCC[C@H]1C2 [Example 74, (9S)-3-chloro-N-(5-((S)-2,3-dihydroxypropoxy)pyridin-2-yl)-2-(3-(trifluoromethyl)phenyl)-8,9-dihydro-6H-5,9-methanopyrido[2,3-b][1,4]diazocine-10(7H)-carboxamide] | ≥ 150% | A (EC1.5<1 μM)
7 | O=C(Nc1nccc(OC[C@@H](O)CO)n1)N1c2nc(-c3cccc(C(F)(F)F)c3)c(Cl)cc2N2CCC[C@H]1C2 [Example 75] | ≥ 150% | A (EC1.5<1 μM)
8 | O=C(Nc1cncc(OC[C@H](O)CO)c1)N1c2nc(-c3cccc(C(F)(F)F)c3)c(Cl)cc2N2CCC[C@H]1C2 [Example 76, (9S)-3-chloro-N-(5-((R)-2,3-dihydroxypropoxy)pyridin-3-yl)-2-(3-(trifluoromethyl)phenyl)-8,9-dihydro-6H-5,9-methanopyrido[2,3-b][1,4]diazocine-10(7H)-carboxamide] | ≥ 150% | A (EC1.5<1 μM)
9 | O=C(Nc1cnc(OC[C@@H](O)CO)cn1)N1c2nc(-c3cccc(C(F)(F)F)c3)c(Cl)cc2N2CCC[C@H]1C2 [Example 77, (9S)-3-chloro-N-(5-((S)-2,3-dihydroxypropoxy)pyrazin-2-yl)-2-(3-(trifluoromethyl)phenyl)-8,9-dihydro-6H-5,9-methanopyrido[2,3-b][1,4]diazocine-10(7H)-carboxamide] | ≥ 150% | A (EC1.5<1 μM)

Source: patent US20190048016A1, “SUBSTITUTED BRIDGED UREA ANALOGS AS SIRTUIN MODULATORS” (GlaxoSmithKline Intellectual Property(No.2)Limited, priority 2014, published 2019)
